In the NIST ThermoML archive (doi:10.1016/j.jct.2004.10.005):

How the values were obtained:
[1] = Molar enthalpy of transition or fusion

BrC12CC3CC(CC(C3)C1)C2 [1-bromotricyclo[3.3.1.1(3,7)]decane]
[1]
Settings	Molar enthalpy of transition or fusion [kcal/mol]
Crystal 1, DSC	0.949
Crystal 2, Adiabatic calorimetry	1.77
Crystal 2, DSC	1.79
Crystal 3, Adiabatic calorimetry	0.3315
Crystal 4, Adiabatic calorimetry	0.000344

Settings	Triple point temperature [K]
Crystal 1, DTA	391.8
Crystal 2, Adiabatic calorimetry	309.9
Crystal 2, DTA	309.8
Crystal 3, Adiabatic calorimetry	282.2
Crystal 4, Adiabatic calorimetry	31
